One may read the pEC50 as the negative decadic logarithm of the EC50, by convention in mol/L. The term pIC50 denotes the IC50 on a negative log10 scale, so that one unit is a factor of ten.

Among the data in US10669272B2, “Substituted naphthyridinone compounds useful as T cell activators” (BRISTOL-MYERS SQUIBB COMPANY, priority 2018, dated 2020) are EC50 and IC50 values, retold here.

The subject of one assay is Human venous whole blood. Description: Human whole blood IFN-γ assay.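 Further: blood from healthy donors exposed to compound for 1 h before stimulation with anti-CD3 and anti-CD28 at 1 µg/mL each, IFN-γ quantified in supernatant by AlphaLISA.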 Type of assay: cell-based. The following applies: human whole blood, read-out: INFg Whole Blood Normalized Agonist EC50.
The next assay addresses T1, human DGKζ (Homo sapiens, UniProt Q13574).
T1 construct: TVMV protease cleavage site (C); Hexa-His (C); made in house; host or cells: Sf9 insect cells (baculovirus, Bac-to-Bac)
Description: DGKζ LIPGLO assay (extruded liposome substrate), in vitro DGK inhibition. The note with it: read-out: DGKz LIPGLO IC50. Type of assay: biochemical.

A further assay addresses T2, human DGKα (Homo sapiens, UniProt P23743).
T2 construct: TVMV protease cleavage site (C); Hexa-His (C); made in house; host or cells: Sf9 insect cells (baculovirus, Bac-to-Bac)
Description: DGKα LIPGLO assay (extruded liposome substrate), in vitro DGK inhibition. It is filed as biochemical. The note with it: read-out: DGKa LIPGLO IC50.

The subject of the next assay is naïve human CD8 T cells. Description: Human CD8 T cells IFN-γ assay.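 Further: Naïve human CD8 T cells stimulated with plate-bound anti-CD3 and soluble anti-CD28, IFN-γ in supernatant quantified by AlphaLISA and converted to pg/mL.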 Type of assay: cell-based. The note with it: read-out: HuCD8 INFG Normalized EC50.
[1] abbreviates: Homo sapiens, 24 h, normalized to 3 μM reference compound with anti-CD3 plus anti-CD28 as 100% activation.
The mark [2] stands for this setting: Homo sapiens, T-cell, 20 h, normalized to 3 μM reference compound with anti-CD3 plus anti-CD28 as 100% activation.
[3] abbreviates: normalized to 3 μM reference compound with anti-CD3 plus anti-CD28 as 100% activation.
Where [4] appears, read: Homo sapiens, T-cell, 20 h, naïve human CD8 T cells, anti-CD3 plus anti-CD28, 3 μM reference compound = 100% activation.

pEC50, pIC50: −log10 of the molar value. Where two headings read alike, the source gives them in different places.

T1 sequence (Q13574 with tags, fused parts or gaps isoform Q13574-4): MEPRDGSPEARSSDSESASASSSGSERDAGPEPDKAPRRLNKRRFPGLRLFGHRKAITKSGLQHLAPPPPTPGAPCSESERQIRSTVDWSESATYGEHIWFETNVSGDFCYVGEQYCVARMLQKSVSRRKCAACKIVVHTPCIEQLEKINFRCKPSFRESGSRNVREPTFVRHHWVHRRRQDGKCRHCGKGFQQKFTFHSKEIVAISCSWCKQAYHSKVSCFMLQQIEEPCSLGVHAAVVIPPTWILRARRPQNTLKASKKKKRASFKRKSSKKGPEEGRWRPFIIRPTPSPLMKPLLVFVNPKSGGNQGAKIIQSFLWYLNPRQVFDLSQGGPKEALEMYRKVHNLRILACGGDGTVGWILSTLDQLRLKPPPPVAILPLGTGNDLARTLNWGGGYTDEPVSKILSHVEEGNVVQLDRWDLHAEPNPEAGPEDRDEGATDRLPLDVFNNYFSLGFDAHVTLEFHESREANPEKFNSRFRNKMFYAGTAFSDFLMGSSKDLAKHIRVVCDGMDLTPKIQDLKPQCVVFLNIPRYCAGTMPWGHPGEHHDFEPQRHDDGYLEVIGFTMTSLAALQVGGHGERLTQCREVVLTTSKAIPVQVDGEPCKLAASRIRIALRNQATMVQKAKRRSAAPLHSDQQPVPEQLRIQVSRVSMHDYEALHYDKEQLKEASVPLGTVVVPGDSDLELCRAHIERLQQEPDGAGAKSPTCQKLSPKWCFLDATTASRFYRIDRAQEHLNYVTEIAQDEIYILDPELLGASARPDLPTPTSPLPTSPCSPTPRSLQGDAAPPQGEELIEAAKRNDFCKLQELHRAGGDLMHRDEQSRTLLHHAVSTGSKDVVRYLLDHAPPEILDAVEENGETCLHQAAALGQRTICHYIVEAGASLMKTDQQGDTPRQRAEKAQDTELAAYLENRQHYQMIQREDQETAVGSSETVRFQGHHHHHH
T2 sequence (P23743 with tags, fused parts or gaps): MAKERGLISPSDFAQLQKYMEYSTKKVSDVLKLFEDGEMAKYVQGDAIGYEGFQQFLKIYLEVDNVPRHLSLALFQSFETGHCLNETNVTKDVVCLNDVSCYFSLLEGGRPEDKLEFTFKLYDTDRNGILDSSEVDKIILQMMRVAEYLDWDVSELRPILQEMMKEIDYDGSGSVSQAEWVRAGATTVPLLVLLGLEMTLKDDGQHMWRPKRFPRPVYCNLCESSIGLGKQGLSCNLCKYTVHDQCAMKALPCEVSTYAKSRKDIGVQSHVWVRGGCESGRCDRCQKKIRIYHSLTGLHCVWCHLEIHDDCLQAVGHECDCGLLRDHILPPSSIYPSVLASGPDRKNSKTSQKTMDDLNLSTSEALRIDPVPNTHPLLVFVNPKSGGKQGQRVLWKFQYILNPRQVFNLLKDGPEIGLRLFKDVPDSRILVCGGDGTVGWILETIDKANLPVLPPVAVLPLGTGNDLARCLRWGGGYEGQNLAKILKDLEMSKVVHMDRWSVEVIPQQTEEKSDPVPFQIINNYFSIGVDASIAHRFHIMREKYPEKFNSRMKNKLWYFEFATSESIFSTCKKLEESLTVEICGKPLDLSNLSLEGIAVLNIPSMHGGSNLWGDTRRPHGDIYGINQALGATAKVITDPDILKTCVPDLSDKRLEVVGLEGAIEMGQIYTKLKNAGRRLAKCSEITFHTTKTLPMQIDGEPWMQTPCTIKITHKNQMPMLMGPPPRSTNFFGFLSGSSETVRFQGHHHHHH
Description for Human venous whole blood: Human Whole Blood IFN-γ Assay
Human venous whole blood (22.5 μL per well), obtained from healthy donors, was pre-treated with compounds for one hour at 37° C. in a humidified 95% air/5% CO2 incubator. The blood was stimulated with 2.5 μL anti-human CD3 and anti-CD28 mAb at a final concentration of 1 μg/mL each for 24 hours at 37° C. IFN-γ in the supernatants was measured using AlphLISA kit (Cat # AL217).

On to `CCOC[C@@H]1CN(c2cc(=O)n(C)c3ccc(C#N)nc23)[C@@H](C)CN1C(c1ccc(F)cc1)c1ccc(F)cc1` [Example 1164, 8-((2S,5S)-4-(bis(4-fluorophenyl)methyl)-5-(ethoxymethyl)-2-methylpiperazin-1-yl)-5-methyl-6-oxo-5,6-dihydro-1,5-naphthyridine-2-carbonitrile], for which the pEC50 was 6.47 in the assay on Human venous whole blood (setting [1]) and 7.77 in the assay with naïve human CD8 T cells (setting [2]). Further, the figures for the pIC50 at human DGKζ (liposome (LIPGLO) assay) and at human DGKα (liposome (LIPGLO) assay) were 6.17 and 4.74, respectively.
On to `C[C@@H]1CN(c2cc(=O)n(C)c3ccc(C#N)nc23)[C@@H](C)CN1C(c1ccccn1)c1ccc(F)cc1F` (single isomer, unassigned) [Example 682], for which the pEC50 in the assay on Human venous whole blood (setting [3]) is 6.49; with naïve human CD8 T cells (setting [2]) it was 7.41. The pIC50 on human DGKζ (liposome (LIPGLO) assay) is 5.82; at human DGKα (liposome (LIPGLO) assay), 6.24.
In the same order, the values of `COc1cc(F)ccc1C(N1C[C@H](C)N(c2cc(=O)n(C)c3ccc(C#N)nc23)C[C@H]1C)C(C)(C)C` (single isomer, unassigned) [Example 185] are 5.70, 5.00, 6.68 and 5.36.
As to `C[C@@H]1CN(c2c(C#N)c(=O)n(C)c3ccc(C#N)nc23)CCN1C(c1ccc(F)cc1)c1ccccn1` (single isomer, unassigned) [Example 918], the negative-log EC50 (pEC50) in the assay with Human venous whole blood (anti-CD3 plus anti-CD28, 24 hours, 3 μM reference compound = 100% activation) is 6.42; in the assay with naïve human CD8 T cells (setting [4]), 6.89. Also, the negative logarithm of the IC50 (pIC50) on human DGKζ (DGKζ liposome (LIPGLO) assay) was 6.42; on human DGKα (DGKα liposome (LIPGLO) assay), 7.28.
Take `CCc1cc(F)ccc1C(c1ccc(Cl)cc1)N1C[C@H](C)N(c2cc(=O)n(C)c3ccc(C#N)nc23)C[C@H]1C` (single isomer, unassigned) [Example 226]: the pEC50 in the assay on Human venous whole blood (setting [3]) is 5.77; in the assay with naïve human CD8 T cells (setting [3]) it was 7.17. In addition, the pIC50 on human DGKζ (liposome (LIPGLO) assay) is 5.85; at human DGKα (liposome (LIPGLO) assay) it was 4.17.
For the molecule `CC(C)Oc1ncccc1C(c1ccc(F)cc1)N1C[C@H](C)N(c2cc(=O)n(C)c3ccc(C#N)nc23)C[C@H]1C` (single isomer, unassigned) [Example 207], the pEC50 with Human venous whole blood (setting [3]) is 5.46; in the assay with naïve human CD8 T cells (setting [2]), 6.37. The pIC50 on human DGKζ (liposome (LIPGLO) assay) is 5.51; on human DGKα (liposome (LIPGLO) assay), 4.15.
For the molecule `C[C@@H]1CN(c2cc(=O)n(C)c3ccc(C#N)nc23)[C@@H](C)CN1C(c1ccc(F)cc1)c1ccncn1` (single isomer, unassigned) [Example 392], the pEC50 was 6.48 in the assay on Human venous whole blood (setting [1]) and 7.18 in the assay with naïve human CD8 T cells (setting [2]). Moreover, the figures for the pIC50 on human DGKζ (liposome (LIPGLO) assay) and at human DGKα (liposome (LIPGLO) assay) were 5.68 and 6.74, respectively.
In the same order, the values of `Cc1ccnc(C(c2ccc(Cl)cc2)N2C[C@H](C)N(c3cc(=O)n(C)c4ccc(C#N)nc34)C[C@H]2C)c1` (single isomer, unassigned) [Example 362] are 6.14, 6.64, 6.47 and 6.64.
Take `CC[C@@H]1CN(c2cc(=O)n(C)c3ccc(C#N)nc23)[C@@H](C)CN1C(c1ccc(F)cc1)c1ncccc1F` (stereo partly drawn) [Example 1105]: the values for the pEC50 with Human venous whole blood (setting [3]) and with naïve human CD8 T cells (setting [3]) were 6.49 and 6.70, respectively. Further, the pIC50 is 6.36 at human DGKζ (liposome (LIPGLO) assay) and 6.82 on human DGKα (liposome (LIPGLO) assay).
With `C[C@@H]1CN(c2cc(=O)n(C)c3ccc(C#N)nc23)[C@@H](C)CN1C(c1ccc(OC(F)(F)F)cc1)c1ccccn1` (single isomer, unassigned) [Example 378], the results for the pEC50 with Human venous whole blood (setting [1]) and in the assay with naïve human CD8 T cells (setting [2]) were 6.31 and 8.28, respectively. The pIC50 is 5.60 on human DGKζ (liposome (LIPGLO) assay) and 6.16 on human DGKα (liposome (LIPGLO) assay).
On to `C[C@@H]1CN(c2cc(=O)n(C)c3ccc(C#N)nc23)[C@@H](C)CN1C(c1ccc(F)cc1)c1cccc2c1OC(F)(F)O2` (stereo partly drawn) [Example 668], for which the values for the pEC50 in the assay with Human venous whole blood (setting [1]) and in the assay with naïve human CD8 T cells (setting [3]) were 6.22 and 7.46, respectively. For the same molecule, the pIC50 at human DGKζ (liposome (LIPGLO) assay) is 5.51; on human DGKα (liposome (LIPGLO) assay), 3.92.
For `C[C@@H]1CN(c2cc(=O)n(C)c3ccc(C#N)nc23)[C@@H](C)CN1C(c1ccc(F)cc1)c1nc(C2CC2)no1` (single isomer, unassigned) [Example 735], the pEC50 is 6.85 in the assay with Human venous whole blood (Homo sapiens, 24 h, anti-CD3 plus anti-CD28, 24 hours, 3 μM reference compound = 100% activation) and 9.13 in the assay on naïve human CD8 T cells (setting [4]). In addition, the pIC50 on human DGKζ (DGKζ liposome (LIPGLO) assay) is 7.21; at human DGKα (DGKα liposome (LIPGLO) assay), 6.62.
Consider `CC[C@H]1CN(C(c2ccc(F)cc2)c2ncccc2F)[C@H](CC)CN1c1cc(=O)n(C)c2ccc(C#N)nc12` (single isomer, unassigned) [Example 1037], for which the pEC50 with Human venous whole blood (setting [3]) was 6.89; in the assay on naïve human CD8 T cells (setting [2]), 7.85. Further, the figures for the pIC50 at human DGKζ (liposome (LIPGLO) assay) and on human DGKα (liposome (LIPGLO) assay) were 6.55 and 7.31, respectively.
Regarding `Cn1c(=O)cc(N2CCN(C(c3ccc(F)cc3)c3ccc(F)cc3)C(C(=O)NC3CC3)C2)c2nc(C#N)ccc21` (single isomer, unassigned) [Example 47, 1-(bis(4-fluorophenyl)methyl)-4-(6-cyano-1-methyl-2-oxo-1,2-dihydro-1,5-naphthyridin-4-yl)-N-cyclopropylpiperazine-2-carboxamide], the negative logarithm of the EC50 (pEC50) was 5.30 with Human venous whole blood (setting [1]) and 5.00 in the assay on naïve human CD8 T cells (setting [3]). The pIC50 was 5.28 on human DGKζ (liposome (LIPGLO) assay) and 3.59 at human DGKα (liposome (LIPGLO) assay).
With `CC(c1ccc(F)cc1)N1C[C@H](C)N(c2cc(=O)n(C)c3ccc(C#N)nc23)C[C@H]1C` (single isomer, unassigned) [Example 309], the pEC50 with Human venous whole blood (setting [3]) is 6.06; with naïve human CD8 T cells (setting [3]), 7.44. Besides, the negative-log IC50 (pIC50) is 6.31 on human DGKζ (liposome (LIPGLO) assay) and 6.14 at human DGKα (liposome (LIPGLO) assay).
On to `C[C@H]1CN(C(c2ccc(Cl)cc2)c2ccc(Cl)cc2)[C@H](CO)CN1c1cc(=O)n(C)c2ccc(C#N)nc12` [Example 1152], for which the pEC50 in the assay on Human venous whole blood (setting [1]) was 6.11; in the assay with naïve human CD8 T cells (setting [2]) it was 5.00. The pIC50 at human DGKζ (liposome (LIPGLO) assay) was 4.62; at human DGKα (liposome (LIPGLO) assay), 5.13.
On to `CCOc1ncccc1C(c1ccc(F)cc1)N1C[C@H](C)N(c2cc(=O)n(C)c3ccc(C#N)nc23)C[C@H]1C` (single isomer, unassigned) [Example 206], for which the pEC50 is 5.85 in the assay on Human venous whole blood (setting [3]) and 7.41 in the assay on naïve human CD8 T cells (setting [3]). Further, the pIC50 at human DGKζ (liposome (LIPGLO) assay) was 6.36; at human DGKα (liposome (LIPGLO) assay) it was 4.62.
On the same counts, the results for `CCc1cc(F)ccc1C(c1ccc(F)cc1)N1C[C@H](C)N(c2cc(=O)n(C)c3ccc(C#N)nc23)C[C@H]1C` (single isomer, unassigned) [Example 228] are 5.55, 7.51, 5.85 and 4.24.
For the molecule `CCC(c1ccc(F)c(F)c1)N1C[C@H](C)N(c2cc(=O)n(C)c3ccc(C#N)nc23)C[C@H]1C` (single isomer, unassigned) [Example 344], the pEC50 with Human venous whole blood (setting [1]) is 6.34; with naïve human CD8 T cells (setting [2]), 7.62. Moreover, the negative logarithm of the IC50 (pIC50) at human DGKζ (liposome (LIPGLO) assay) and on human DGKα (liposome (LIPGLO) assay) was 6.00 in each case.
For the molecule `C[C@@H]1CN(c2cc(=O)n(C)c3ccc(C#N)nc23)[C@@H](C)CN1C(c1ccc(F)cc1)c1ccc(Cl)cn1` (single isomer, unassigned) [Example 211], the figures for the pEC50 in the assay with Human venous whole blood (setting [1]) and in the assay on naïve human CD8 T cells (setting [2]) were 6.10 and 7.54, respectively. Besides, the pIC50 at human DGKζ (liposome (LIPGLO) assay) was 6.82; at human DGKα (liposome (LIPGLO) assay) it was 7.41.
With `[2H]C([2H])(c1c(F)cc(F)cc1F)N1C[C@H](C)N(c2cc(=O)n(C)c3ccc(C#N)nc23)C[C@H]1C` [Example 430, 8-((2S,5R)-2,5-dimethyl-4-((2,4,6-trifluorophenyl)methyl-d2)piperazin-1-yl)-5-methyl-6-oxo-5,6-dihydro-1,5-naphthyridine-2-carbonitrile], the pEC50 was 6.30 in the assay with Human venous whole blood (setting [1]) and 7.34 in the assay on naïve human CD8 T cells (setting [2]). For the same molecule, the results for the pIC50 on human DGKζ (liposome (LIPGLO) assay) and on human DGKα (liposome (LIPGLO) assay) were 5.70 and 6.39, respectively.
On the same counts, the results for `C[C@@H]1CN(c2cc(=O)n(C)c3ccc(C#N)nc23)[C@@H](C)CN1Cc1c(F)cccc1C(F)(F)F` [Example 254, 8-[(2S,5R)-4-{[2-fluoro-6-(trifluoromethyl)phenyl]methyl}-2,5-dimethylpiperazin-1-yl]-5-methyl-6-oxo-5,6-dihydro-1,5-naphthyridine-2-carbonitrile] are 5.66, 6.68, 5.80 and 6.85.
Take `C[C@@H]1CN(c2cc(=O)n(C)c3ccc(C#N)nc23)[C@@H](C)CN1Cc1ccc(F)cc1C(F)F` [Example 242, 8-[(2S,5R)-4-{[2-(difluoromethyl)-4-fluorophenyl]methyl}-2,5-dimethylpiperazin-1-yl]-5-methyl-6-oxo-5,6-dihydro-1,5-naphthyridine-2-carbonitrile]: the pEC50 in the assay on Human venous whole blood (Homo sapiens, normalized to 3 μM reference compound with anti-CD3 plus anti-CD28 as 100% activation) was 5.82; in the assay with naïve human CD8 T cells (setting [2]), 6.77. In addition, the pIC50 on human DGKζ (liposome (LIPGLO) assay) was 6.01; at human DGKα (liposome (LIPGLO) assay) it was 5.36.
On to `C[C@@H]1CN(c2cc(=O)n(C)c3ccc(C#N)nc23)[C@@H](C)CN1C(c1ccccc1F)c1ccccc1F` [Example 258, 8-[(2S,5R)-4-[bis(2-fluorophenyl)methyl]-2,5-dimethylpiperazin-1-yl]-5-methyl-6-oxo-5,6-dihydro-1,5-naphthyridine-2-carbonitrile], for which the figures for the pEC50 with Human venous whole blood (setting [1]) and with naïve human CD8 T cells (setting [2]) were 5.85 and 7.25, respectively. For the same molecule, the pIC50 on human DGKζ (liposome (LIPGLO) assay) was 6.09; on human DGKα (liposome (LIPGLO) assay) it was 6.62.
